Where “and” joins values, the source holds several entries; their conditions need not be identical. Identical values can stand only once. Like-named read-outs stand apart in the source and are kept apart here.

Common to all, as to type: cell-based, human
Assay [1] has as its system Hec50co cells. As to the kind of experiment: Cytotoxicity assay (MTS), Hec50co cells. To be noted: 72 h; for IC50: Homo sapiens. As for the experimental part: Cytotoxicity assay. Hec50co cells were seeded at 1500 cells per well in 96-well plates for 24 h in a complete medium. Later, the medium was removed and PTX, CIP2b, or CIP (all dissolved in DMSO and diluted in complete medium) were added to cells as either monotherapies or in combinations, and the plates were incubated for 72 hours. Then, the complete medium was removed and MTS reagent in the complete medium was added to wells, and the plates were incubated for 1-4 hours according to the manufacturer's protocol. Finally, the absorbance was recorded at 490 nm using a Spectra Max plus 384 Microplate Spectrophotometer (Molecular Devices, Sunnyvale, CA). Percentage cell viability was expressed as the average absorbance of the test group relative to that of the control group (untreated cells). The concentration that inhibits proliferation of 50% of cells compared to control (IC50) was calculated using GraphPad Prism (La Jolla, CA). Synergism was detected following the Chou-Talalay method (CI<1 indicates synergism) (Chou T C. Cancer research. 2010; 70(2):440-6, doi: 10.1158/0008-5472.CAN-09-1947) using CompuSyn software (Ver. 1.0). […]

The test system of assay [2] is Hec50co cells. Description: Cell cycle assay (PI flow cytometry). To be noted: 24 h. As for the experimental part: Cell Cycle assay. Hec50co cells were seeded at […] cells per well in 6-well plates for 48 h in complete medium. The medium was then removed and replaced with PTX (1, 5, and 10 nM), CIP2b (10 μM), combinations of PTX with CIP2b, or with a fresh complete medium. Cells were incubated with the treatments for 24 h, then the medium was removed, and the cells were washed twice with Dulbecco's Phosphate-Buffered Saline (DPBS 1×, ThermoFisher Scientific), trypsinized (0.4 mL/well), and collected by centrifugation (230 xg, 5 min). Cells were then fixed using 70% ethanol stored at 4° C. for 30 min, then incubated with 100 μg/mL RNase A in 2% v/v NP-40 Surfact-Amps® solution (0.5 mL/sample) for 30 min at 37° C. Then, PI (50 μg/mL, 0.5 mL/sample) was added prior to analysis by flow cytometry (FACScan, BD Biosciences) using CellQuest software (Ver. 3.3). The data were further analyzed by ModFit LT (Ver. 5.0) to calculate the percent of cells in each phase of the cell cycle (i.e., G0/G1, S, G2/M).
(§1) In vitro activity of CIP2b NPs. […] An equivalent quantity of blank NPs was also tested to account for the effect of the PLGA NPs alone without CIP2b. […] An equivalent quantity of blank NPs was also added, either alone or with PTX-OG. Samples were then analyzed using a flow cytometer, as described above.

Assay [3] has as its system Hec50co cells. As to the kind of experiment: Intracellular accumulation of PTX-OG (flow cytometry, confocal microscopy). To be noted: 400 nM PTX-OG alone, 2 h. As for the experimental part:
Intracellular accumulation of PTX using flow cytometer. To evaluate PTX cellular accumulation in the presence or absence of CIP2b, Hec50co cells were seeded at a density of 200,000 cells per well in 6-well plates in complete medium and incubated for 24 h. Afterward, the medium was removed, and a DMSO-based solution (0.1 mg/mL) of fluorescently labeled PTX (PTX-OG) was added at 400 nM per well, and the volume was completed to 2 mL with the medium. Also, CIP2b (in DMSO) was added at 4 or 40 μM, either alone or in combination with PTX-OG. After 2 h, the medium was removed, the cells were washed thoroughly with DPBS, trypsinized, and collected by centrifugation (230 xg, 5 min). Finally, cells were analyzed by flow cytometry (FACScan).
Intracellular accumulation of PTX using confocal microscopy. Intracellular accumulation of PTX co-delivered with CIP2b was also studied qualitatively in Hec50co cells using confocal microscopy. […]
as §1

Another assay has as its system caspase 9. Description: Caspase multiplex activity assay, caspase 9. To be noted: 24 h. As for the experimental part: Apoptosis and caspase activity. The expression of caspase 3, 8, and 9 was measured using Multiplex Activity Assay Fluorometric Kit (Cat. No. ab219915, Abcam). Briefly, Hec50co cells were plated in 96-well plates at a density of 3000 per well in 100 μL of the complete medium and incubated for 24 hours. After incubation, the medium was removed, and different concentrations either in single or combination of treatments were added (PTX 5 and 10 nM; CIP2b 10, 25, and 50 μM). Cells with treatments were incubated for 24 or 72 hours. Then, the caspase kit reagents were added to the cells and incubated at room temperature for 60 minutes. Fluorescence intensity (at excitation/emission values of 535/620 nm, 490/525 nm, and 370/450 nm for caspase 3, 8, and 9, respectively) was then measured using a SpectraMax M5 microplate reader (Molecular Devices).

Turning to `CC(=O)O[C@H]1C(=O)[C@@]2(C)[C@H]([C@H](OC(=O)c3ccccc3)[C@]3(O)C[C@H](OC(=O)[C@H](O)[C@@H](NC(=O)c4ccccc4)c4ccccc4)C(C)=C1C3(C)C)[C@]1(OC(C)=O)CO[C@@H]1C[C@@H]2O` [PTX, paclitaxel], the survival with Hec50co cells [1] (0.1 nM PTX alone) stood at 100%. Moreover, in the assay with Hec50co cells [1] (5 nM PTX as single compound), the cell survival entry is “about 80%”. The IC50 in the assay on Hec50co cells [1] (10 μM CIP2b added, read-out: IC50 value of PTX) came to 3.1 nM; in the assay on Hec50co cells [1] (25 μM CIP2b added, read-out: IC50 value of PTX), 2.15 nM; in the assay with Hec50co cells [1] (PTX alone) it was 8.77 nM. The “cell population at the G2/M phase” value was “approximately 46%” with Hec50co cells [2] (5 nM PTX); ~70% and 69.5% with Hec50co cells [2] (10 nM PTX). Besides, the “cellular uptake of PTX-OG” value with Hec50co cells [3] is on record as “readily taken up”. The “expression of caspase 9 vs untreated” value with caspase 9 (5 nM PTX) is “not statistically different from untreated cells”. The “level of caspase 9 expression vs untreated” value with caspase 9 (10 nM PTX) is given as “significantly higher”.

The values are drawn from US20240082238A1, “COMPOSITIONS AND METHODS FOR TREATING CANCER” (UNIVERSITY OF IOWA RESEARCH FOUNDATION, priority 2021, published 2024).
